# Measured values reported in patent publication US20260109721A1, “IONIZABLE CATIONIC LIPIDS INCORPORATING SILICON: SYNTHESIS AND LNP FORMULATION” (priority 2023, published 2026).
# Columns and labels:
# [1] = Encapsulation efficiency of loaded LNPs, RiboGreen RNA assay (Method A); type: physicochemical; settings: encapsulation efficiency of mRNA-loaded LNP, Method A, RiboGreen
# Protocol: (§1) The synthesized lipids were tested in term of in vitro transfection efficacy and toxicity on HeLa cells. In order to perform the mentioned biological tests, appropriate LNPs had to be formulated from the synthesized lipids. The formulation technique was different in Method A and B. The particle size, polydispersity index (PDI) and zeta potential of resulting LNPs were determined by means of Dynamic Light Scattering technique (DLS). Prior to biological testing the encapsulation efficiency (EE) of the loaded LNPs was determined by using RiboGreen RNA assay. In case of Method A Luc mRNA while in case of Method B GFP mRNA was transfected into the cells. In parallel with the transfection experiments, toxicity of the investigated LNPs was determined, in case of Method A resazurin assay while in case of Method B MTT assay was used. Additionally, the toxicity of the lipids was investigated on HepG2 cells and IC50 values were determined.
# • 1. Preparation of sample stock solutions: In the top row of the 96-well plate (Row A in the plate), add 297 μL of TE buffer pH 7.4 (see Table 1) to a single well for each sample plus a single well for a PBS blank using a multichannel pipette.
# • 2. Add 3 μL of sample (at 0.5 mg/ml) to these wells for a final volume of 300 μL. Add 3 μL of PBS to the blank well. Pipette to mix. This is your stock solution for each sample. The final RNA concentration of these stock solutions should be approximately 4-7 μg/mL. • 3. mRNA-LNP sample setup: • a. Add 50 μL of TE buffer pH 7.5 to the two wells directly below each sample (Rows B and C in the plate). • b. Add 50 μL of sample stock solution from Row A into the wells in Rows B and C (this assay is run in duplicate. All liquid handling should be done using a multichannel pipette). • c. Add 50 μL of Triton buffer to the wells in Rows D and E (in the plate) below each sample. • d. Add 50 μL of sample stock solution from Row A into the wells in Rows D and E. • 4. RiboGreen RNA standard curve setup: Dilute the RNA standard to produce an RNA stock at a final concentration of 20 μg/mL in TE buffer pH 7.4. The final volume should be 150 μL. Set up a standard curve (in duplicate) as using the RNA stock (20 μg/mL siRNA), TE buffer pH 7.5, and Triton X-100 buffer according the Table 2 and Table 3 below.
# • 5. Once samples and standard curve are plated, incubate the plate at 37° C. for 10 min to lyse mRNA-LNP in the presence of Triton X-100 buffer. • 6. Meanwhile, prepare RiboGreen Solution: Sum the total number of sample wells and standard curve wells. Add three to this number, and multiply the total by 100. This is the total volume, in μL, of RiboGreen Solution needed for this assay. In a 15 mL RNAse-free Falcon tube, dilute the RiboGreen Reagent 1:100 into TE buffer pH 7.5 to the total volume calculated. • 7. Addition of RiboGreen Solution and sample readings: Remove a 96-well plate from 37° C. incubator; let it cool to room temperature as RiboGreen binding is somewhat temperature dependent. Add 100 μL of RiboGreen Solution to each well. Pop any air bubbles with a needle. Read using fluorescent plate reader (excitation=480, emission=525). • 8. Sample analysis: Use the data generated by the RiboGreen standard curve to calculate the concentration of mRNA. Transfection Efficiency with Luciferase-mRNA (Method A)
# HepG2 cell line = experiment: In vitro toxicity study on HepG2 cell line (resazurin, viability and IC50); type: cell-based, human; settings: resazurin; for Viability (%) at different lipid concentrations, mean: HepG2 cells, 48 h post-treatment, relative to ethanol vehicle controls; for IC50: Homo sapiens, lipid toxicity, HepG2, 48 h post-treatment, 6.25-800 μM, read-out: IC50 value, μM (on HepG2 cell)
# Protocol: as §1
# HepG2 cell line (human hepatocellular carcinoma) were maintained in DMEM medium supplemented with 10% FBS. Cell toxicity measurements were carried out in 384-well microtiter plates with 1000 cells seeded in each well. Test measurements were carried out in triplicate, and control measurements in quadruplicate. After an overnight incubation, the cells were treated with an increasing concentration of the test compounds (6.25, 12.5, 25, 50, 100, 200, 400, 800 μM). […] 48 h post-treatment, following visual inspection under an inverted microscope, cell viability was measured by resazurin assay. Viability of treated cells was calculated relative to that of ethanol vehicle controls. Concentration response curves (CRCs) were obtained and corresponding IC50 values were calculated where applicable and are shown in Table 9.
# Resazurin reagent (Sigma-Aldrich) was dissolved in PBS (pH 7.4) at 0.15 mg/ml concentration, 0.22 μm filtered and aliquoted at −20° C., 10 μl resazurin stock solution was added to wells. After 5 hours incubation at 37° C. under 5% CO2 fluorescence (530 nm excitation/580 nm emission) was recorded on a multimode microplate reader.
SMILES,EE (%) [1] [%],"Viability (%) at different lipid concentrations, mean (HepG2 cell line; 6.25 μM lipid) [%]","Viability (%) at different lipid concentrations, mean (HepG2 cell line; 12.5 μM lipid) [%]","Viability (%) at different lipid concentrations, mean (HepG2 cell line; 25 μM lipid) [%]","Viability (%) at different lipid concentrations, mean (HepG2 cell line; 50 μM lipid) [%]","Viability (%) at different lipid concentrations, mean (HepG2 cell line; 100 μM lipid) [%]","Viability (%) at different lipid concentrations, mean (HepG2 cell line; 200 μM lipid) [%]","Viability (%) at different lipid concentrations, mean (HepG2 cell line; 400 μM lipid) [%]","Viability (%) at different lipid concentrations, mean (HepG2 cell line; 800 μM lipid) [%]",IC50 (HepG2 cell line) [µM]
"CCCCC/C=C\C/C=C\CCCCCCCC(OCCCCCCCCCCCCCCCC)O[Si](C)(C)OCCCCCCN(CCO)CCO (centres unmarked) [Example 44, 13-((8Z,11Z)-heptadeca-8,11-dien-1-yl)-3-(2-hydroxyethyl)-11,11-dimethyl-10,12,14-trioxa-3-aza-11-silatriacontan-1-ol]",82,100.8,98.5,106.8,112.7,122.0,118.8,103.0,94.0,> 800
"CCCCC/C=C\C/C=C\CCCCCCCC(OCCCCCCCC/C=C\CCCCCCCC)O[Si](C)(C)OCCCCCCN(CCO)CCO (centres unmarked) [Example 45, (Z)-13-((8Z,11Z)-heptadeca-8,11-dien-1-yl)-3-(2-hydroxyethyl)-11,11-dimethyl-10,12,14-trioxa-3-aza-11-siladotriacont-23-en-1-ol]",82,105.6,99.4,100.4,106.0,109.5,107.1,64.9,1.1,421
"CCCCC/C=C\C/C=C\CCCCCCCCOC(CCCCCCC/C=C\CCCCCCCC)O[Si](C)(C)OCCCCCCN(CCO)CCO (centres unmarked) [Example 46, (23Z,26Z)-13-((Z)-heptadec-8-en-1-yl)-3-(2-hydroxyethyl)-11,11-dimethyl-10,12,14-trioxa-3-aza-11-siladotriaconta-23,26-dien-1-ol]",81,103.7,100.6,101.2,97.4,103.1,101.8,99.8,92.1,> 800
"CCCCCCCC/C=C\CCCCCCCCOC(CCCCCCC/C=C\CCCCCCCC)O[Si](C)(C)OCCCCCCN(CCO)CCO (centres unmarked) [Example 47, (Z)-13-((Z)-heptadec-8-en-1-yl)-3-(2-hydroxyethyl)-11,11-dimethyl-10,12,14-trioxa-3-aza-11-siladotriacont-23-en-1-ol]",88,104.8,98.6,99.5,105.3,112.3,116.3,97.9,93.6,> 800
"CCCCC/C=C\C/C=C\CCCCCCCCOC(CCCCCCC/C=C\C/C=C\CCCCC)O[Si](C)(C)OCCCCCCN(CCO)CCO (centres unmarked) [Example 48, (23Z,26Z)-13-((8Z,11Z)-heptadeca-8,11-dien-1-yl)-3-(2-hydroxyethyl)-11,11-dimethyl-10,12,14-trioxa-3-aza-11-siladotriaconta-23,26-dien-1-ol]",85,97.4,102.2,95.7,97.8,99.6,101.5,98.4,68.3,> 800
"CCCCCCCCCCCCCCCCOC(CCCCCCCCCCCCCCC)O[Si](C)(C)OCCCCCCN(CCO)CCO (centres unmarked) [Example 49, 3-(2-hydroxyethyl)-11,11-dimethyl-13-pentadecyl-10,12,14-trioxa-3-aza-11-silatriacontan-1-ol]",84,101.6,100.3,100.4,101.0,106.4,118.4,112.6,103.0,> 800
"CCCCCCCC/C=C\CCCCCCCC(OCC(CCCCCC)CCCCCCCC)O[Si](C)(C)OCCCCCCN(CCO)CCO (centres unmarked) [Example 50, (Z)-13-(heptadec-8-en-1-yl)-16-hexyl-3-(2-hydroxyethyl)-11,11-dimethyl-10,12,14-trioxa-3-aza-11-silatetracosan-1-ol]",86,101.0,97.6,99.0,97.9,96.0,100.0,96.5,86.8,> 800
"CCCCCCCC/C=C\CCCCCCCCOC(CC[C@@H](C)C1CCC2C3CCC4C[C@H](OC)CC[C@]4(C)C3CC[C@@]21C)O[Si](C)(C)OCCCCCCN(CCO)CCO (stereo partly drawn) [Example 51, (Z)-3-(2-hydroxyethyl)-13-((3R)-3-((3R,10S,13R)-3-methoxy-10,13-dimethylhexadecahydro-1H-cyclopenta[a]phenanthren-17-yl)butyl)-11,11-dimethyl-10,12,14-trioxa-3-aza-11-siladotriacont-23-en-1-ol]",89,98.6,94.4,96.3,100.0,109.9,114.9,102.9,98.6,> 800
